From patent publication US12692532B2, “Compounds and methods for amine oxidase imaging” (ETH ZURICH, priority 2019, dated 2026)
Non-standard residues stand in square brackets, D forms with d. Residues, ends and D or L forms follow the SMILES beside them. *: point of attachment. X1 = Cc1c(CC(=O)*)c(=O)oc2c(F)c(OCCCN)c(F)cc12; X2 = Cc1c(CC(=O)*)c(=O)oc2c(F)c(O)c(F)cc12; dCha = N[C@H](CC1CCCCC1)C(=O)O; Ahx = NCCCCCC(=O)O

Key:
[1] = tested on: amine-oxidase (LOX) in skin wound; experiment: In vivo intradermal administration to mice, histological analysis of skin wound; details: for fluorescence in cross section of wound after in vivo administration: 100 μM, 50 μL intradermally, skin harvested after five days
Description: Animals: Mice were housed and fed according to Swiss guidelines and all animal experiments were approved by the local veterinary authorities (Kantonales Veterinäramt Zürich). All mice used for these experiments are on a C57BL/6 background. Administration of Compounds 3, 4 and 5 into skin: Peptide solutions at 100 μM were brought to room temperature for 30 min. Male or female mice at 8 weeks of age were anesthetized by intraperitoneal injection of ketamine/xylazine (100 mg ketamine/5-10 mg xylazine per kg body weight), skin shaved and an injection of 50 μL was made intradermally into the back skin. Mice were housed for an additional five days and then skin harvested for histological analysis.
Skin tissue used for histology was harvested and immediately embedded and frozen in tissue freezing Medium® (Leica Biosystems, Wetzlar, Germany). Tissue sections (7 μM) were fixed using ice-cold acetone for 10 min at −20° C. and stained with propidium iodide to visualize nuclei. Images were taken using a 20× objective. For immunofluorescent analysis of collagen, antibodies against collagen I (Southern Biotech, Birmingham, AL, USA; 1310-01) or collagen III (Abcam, Cambridge, UK, ab7778) were used. Fixed tissue sections were incubated with 1% bovine serum albumin (BSA) in PBS for 30 min followed by collagen I (1:400 dilution in 1% BSA) or collagen III (1:800 dilution in 1% BSA) antibodies for 60 min at room temperature. After washing (3×5 min PBS), secondary antibodies (anti-rabbit AF488 (711-547-003) or anti-goat AF488 (705-545-147), Jackson ImmunoResearch) were incubated on the tissues for 30 min at room temperature (both at 1:400 dilution in 1% BSA) and nuclei visualized using propidium iodide. All images were taken using a 20× objective.

SSC13 ear tumor = experiment: Staining of SSC13 ear tumor tissue sections; details: 100 μM in PBS, 4 hours at 37° C.
Description: Skin tissue used for histology was harvested and immediately embedded and frozen in tissue freezing Medium® (Leica Biosystems, Wetzlar, Germany). Tissue sections (7 uM) were treated by the addition of 50 μL of each compound at 100 μM in PBS (Compounds 3, 4, 5, or 6) by pipette to completely cover the surface of the section, incubated at 37° C. for 4 hours in the dark, and washed 2× with PBS. Sections were fixed using ice-cold acetone for 10 min at −20° C. and stained with propidium iodide to visualize nuclei. Images were taken using a 20× objective.
For immunofluorescent analysis of collagen, antibodies against collagen I (Southern Biotech, 1310-01) or collagen III (Abcam, ab7778) were used. Fixed tissue sections were incubated with collagen I or collagen III antibodies for 60 min at room temperature. After washing, secondary antibodies (anti-rabbit AF488 (711-547-003) or anti-goat AF488 (705-545-147), Jackson ImmunoResearch) were incubated on the tissues for 30 min at room temperature and nuclei visualized using propidium iodide. All images were taken using a 20× objective.

[2] = tested on: LOX activity in mouse tissue homogenate; experiment: Ex vivo fluorescence assay of amine oxidase (LOX) activity in mouse tissue homogenate; type: biochemical; details: for fluorescent signal (RFU) with skin homogenate, comparison with oLOX probe: 10 μM, 24 h at 37° C., each at its absorbance and emission maximum
Description: (§1) Fluorescence experiments for determining amine oxidase activity of a given enzyme are conducted using a fluorescence plate reader and a standard 96-well black polystyrene plate with a clear flat bottom. To the plate 150 μL of the following solutions are added to individual wells, e.g. with at least three replicates: buffer (e.g. 25 mM at pH 7.5), a solution in buffer of the amine-oxidase reactive probe, e.g. Compound 2, (e.g. at 100 μM), a buffered solution of the sample containing an amine-oxidase at the desired concentration(s) (e.g. 40 μg/mL), and a buffered solution of the sample containing amine-oxidases with addition of the probe, e.g. Compound 2, (e.g. at 100 μM). The plate is incubated in the dark at 37° C. for a period of time between 15 min and 24 hours before measurements are taken. Fluorescence is measured by exciting the unmasked probe at the absorbance maximum (e.g. 360 nm) or at 405 nm, and measuring the fluorescence at the emission maximum of the probe, for example at 460 nm. Enzyme activity is observed as fluorescence measured relative to the untreated controls, for example as expressed in relative fluorescent units (RFUs). […] Any change, optionally any statistically relevant change, in fluorescence relative to the untreated controls is indicative of amine oxidase activity.
Skin tissue used for enzymatic analysis of LOX activity was harvested (1 cm×1 cm) and placed in 2 ml of ice-cold PBS. Skin tissue was homogenized using an Ultra-TURRAX homogenizer (KA®-Werke GmbH & CO. KG, Staufen, Germany) and samples were spun at 2000×g to pellet out tissue debris. The supernatant was further purified using a 0.2 μm filter. Tissue homogenates were then evaluated with regard to total in solution protein retrieval using a nanospec absorbance measurement standardized to BSA at 1 mg/mL (Pierce™, Thermo Fisher Scientific Inc, Waltham, USA). Homogenates were diluted to appropriate concentrations (e.g. 1 mg/ml total protein) with 25 mM PIPES, 0.5% Triton X-100 (Sigma Aldrich, St Louis, […], USA) and pre-incubated with the probe (10 μM or 100 μM) at 37° C. in the dark for the designated period of time prior to fluorescence measurements. The resultant fluorescence was then measured using a Tecan Spark 10M Multi-Mode Microplate Reader (Tecan, Männedorf, Switzerland) at ambient temperature with a filter for excitation/emission (e.g. 405/460 nm respectively) as defined for the experiment. Activity is observed as fluorescence measured, and is expressed in relative fluorescent units (RFUs). Graphical presentation and statistical analysis were carried out using Graphpad Prism 7 software, (GraphPad Software, Inc., San Diego, USA.) with statistical significance determined as p<0.05.

[3] = Absorption and emission spectroscopy, quantum yield; type: physicochemical; details: excitation wavelength used for the emission scans of FIG. 2
Description: Absorption and emission spectroscopy. UV-visible spectra were obtained with a Cary-500 Scan spectrophotometer. The spectra were measured in quartz cuvettes (ThorLabs, CV10Q3500, Newton, NJ USA). Samples were irradiated with an LED transilluminator (Roithner Lasertechnik, LED405-06V, Vienna, Austria) emitting at a wavelength as stated with an incident intensity of ca. 2 mW cm^−2, measured with a power-meter (ThorLabs, PM100D, Newton, NJ USA) equipped with a Si photodiode detector (ThorLabs, S120VC, Newton, NJ USA). Fluorescence spectroscopy was measured in a Fluorolog 3 fluorimeter (Horiba Jobin-Yvon, Germany) fluorimeter with a cuvette sample changer for quartz cuvettes (ThorLabs, CV10Q3500F-E, Newton, NJ USA). All measurements were conducted at 25° C. in 50 mM PBS pH 7.4 buffer solution under red light for ambient illumination to avoid photoactivation.

[4] = target: T1, recombinant human monoamine oxidase B (MAO-B) (Homo sapiens, UniProt P27338); experiment: Fluorescence assay with recombinant monoamine oxidase B; type: biochemical; details: 100 μM, 2 h at 37° C., Ex/Em 405/460 nm
T1 sequence (P27338 1-520): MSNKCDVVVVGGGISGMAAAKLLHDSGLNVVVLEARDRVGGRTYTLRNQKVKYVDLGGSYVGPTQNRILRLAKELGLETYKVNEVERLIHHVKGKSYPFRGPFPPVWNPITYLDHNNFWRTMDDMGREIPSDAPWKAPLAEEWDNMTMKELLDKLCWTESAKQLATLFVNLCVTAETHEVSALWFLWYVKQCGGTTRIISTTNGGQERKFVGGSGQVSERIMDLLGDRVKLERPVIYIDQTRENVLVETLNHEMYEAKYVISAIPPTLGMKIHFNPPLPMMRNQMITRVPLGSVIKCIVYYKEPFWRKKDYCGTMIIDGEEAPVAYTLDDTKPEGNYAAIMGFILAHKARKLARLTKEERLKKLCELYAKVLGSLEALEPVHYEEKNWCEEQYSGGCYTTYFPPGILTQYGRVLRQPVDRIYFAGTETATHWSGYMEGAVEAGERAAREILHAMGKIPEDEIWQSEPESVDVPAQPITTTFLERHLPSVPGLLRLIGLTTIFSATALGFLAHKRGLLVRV
Description: as §1

[5] = tested on: MAO A/MAO B in MCF-7 cells; experiment: Confocal microscopy of MCF-7 cells treated with MAO probes; type: cell-based; set-up: blue channel (405 nm) fluorescence of the probe / colocalization with MitoTracker Red (405 nm and 561 nm overlay): dose or concentration left out as unconfirmed
Description: Cell culture: MCF-7 and SY5Y cells were obtained from the Health Protection Agency (www.HPA.org.uk) or the American Type Culture Collection. […] Culture medium DMEM high glucose, F-12KTM, L-glutamine (200 mM), penicillin (10.000 U/mL), streptomycin (10 mg/mL), and trypan blue solution were purchased from Sigma, Invitrogen, ATCC or BioConcept. Trypsin-EDTA (0.05%/0.02%) in Ca2+- and Mg2+-deficient phosphate buffered saline (PBS) (1:250) was purchased from Amimed. PBS (pH 7.4) was purchased from Invitrogen. […] Cell culture flasks as well as serological pipettes were purchased from BD Biosciences and Sarstedt. Ethylenediaminetetraacetic acid (EDTA) was purchased from Sigma-Aldrich. Hoechst 33342 was purchased from Invitrogen. MitoTracker Red mitochondrial staining dye and live cell imaging solution were purchased from ThermoFisher.
Confocal Microscopy: Fluorescence images of cells were collected using a Nikon Eclipse T1 microscope equipped with a Yokogawa spinning-disk confocal scanner unit CSU-W1-T2, two sCMOS cameras (Orca Flash 4.0 V2) and a LUDL BioPrecision2 stage with piezo focus. Emission in the blue channel was filtered with a 450/50 bandpass filter, emission in the green channel was filtered with a 525/50 bandpass filter and emission in the far-red channel with a 700/75 bandpass filter. Fluorescence images were obtained using an oil-immersion objective with a magnification of 100×1.49 CFI Apo TIRF. The microscope was operated using VisiVIEW (Metamorph).
Prior to the measurement, cells were seeded at a density of 10′000 cells/well in ibidi 8-well plates and were grown for 1 day in DMEM (10% FCS) at 37° C. Afterwards cells were washed with PBS and fresh DMEM was added. Compounds were added to the cells as stock solutions in PBS to reach the final […] concentration. […] Cells were washed with PBS and the live cell imaging solution (200 μL) was added. The live cells were then immediately examined on a confocal microscope (Vistron Spinning Disk). For detection of the coumarin-activation a laser line 405 nm and for MitoTracker a laser line of 561 nm was used.

[6] = 1 h pretreatment with Selegiline, then 10 mM probe 1 h

## 1-Ahx-[ProHypGly]7—NH2 [Compound 4]
[1]
  fluorescence in cross section of wound after in vivo administration: fluorescence can be clearly visualized at the locations where the peptide-bound probe has been unmasked

## 1-Ahx-[ProProGly]7—NH2 [Compound 5]
[1]
  fluorescence in cross section of wound after in vivo administration: fluorescence can be clearly visualized at the locations where the peptide-bound probe has been unmasked

## 1-[ProHypGly]3-AopProGly-[ProHypGly]3—NH2 [Compound 3]
SSC13 ear tumor
  blue fluorescence of the probe in tumor section: seen around the periphery of the tumor but is strongest near the side of attachment to the cartilage
[1]
  fluorescence in cross section of wound after in vivo administration: fluorescence can be clearly visualized at the locations where the peptide-bound probe has been unmasked
[1]; FIG. 31 (a) center
  localization of the probe in the wound: localizes the probe to collagen and elastin at the sites of LOX-mediated crosslinking

## 3-carboxy-6,8-difluoro-7-(4-((tert-butoxycarbonyl)amino)propoxy)-coumarin [Compound 1]
[2]; after 18 h incubation, UV detection at 254 nm
  HPLC-MS trace of enzymatic conversion: enzymatic conversion of Compound 1 to PB

## 3-carboxy-6,8-difluoro-7-(4-((tert-butoxycarbonyl)amino)propoxy)-coumarin [Compound 2]
[2]
  fluorescent signal (RFU) with skin homogenate, comparison with oLOX probe: significant increase in fluorescent signal
[2]; 100 μM, 1 h at 37° C., homogenate denatured 1.5 h at 90° C., Ex/Em 405/460 nm
  fluorescent signal (RFU) with heat-denatured skin homogenate: significant decrease in fluorescent signal
[2]; 100 μM, 1 h at 37° C., homogenate pretreated with 100 μM BAPN for 2 h, Ex/Em 405/460 nm
  fluorescent signal (RFU) with BAPN-inhibited skin homogenate: significant decrease in fluorescent signal
[2]; 100 μM, 18 h at 37° C., Ex/Em 405/460 nm
  fluorescent signal (RFU) with lung, skin and liver homogenates: most significant increase in fluorescent signal was obtained for skin tissue type
[3]
  absorbance maximum: 313 nm
[4]
  fluorescent signal (RFU) with MAO-B compared to controls: significant increase in fluorescent signal

## Cc1c(CC(=O)NCCCCCC(=O)N[C@H](CC2CCCCC2)C(=O)N[C@H](CCCNC(=N)N)C(=O)N[C@H](CC2CCCCC2)C(=O)N[C@H](CCCNC(=N)N)C(=O)N[C@H](CC2CCCCC2)C(=O)N[C@H](CCCNC(=N)N)C(N)=O)c(=O)oc2c(F)c(O)c(F)cc12 [PB peptide, PB-Ahx-(ChaR)3—NH2, reference compound] ({X2-Ahx}-[dCha][dR][dCha][dR][dCha][dR]-NH2)
[5]; 1 h
  blue channel (405 nm) fluorescence of the probe: fluorescence of the probe
  colocalization with MitoTracker Red (405 nm and 561 nm overlay): lack colocalization

## Cl.Cl.NCCCOc1ccc2c(c1)Oc1cc(OCCCN)ccc1C21OC(=O)c2ccccc21 [oLOX, 3′,6′-Bis(3-aminopropoxy)-3H-spiro[2-benzofuran-1,9′-xanthen]-3-one dihydrochloride, reference compound]
[2]
  fluorescent signal (RFU) with skin homogenate, comparison with oLOX probe: ns

## Cc1c(CC(=O)NCCCCCC(=O)N[C@H](CC2CCCCC2)C(=O)N[C@H](CCCNC(=N)N)C(=O)N[C@H](CC2CCCCC2)C(=O)N[C@H](CCCNC(=N)N)C(=O)N[C@H](CC2CCCCC2)C(=O)N[C@H](CCCNC(=N)N)C(N)=O)c(=O)oc2c(F)c(OCCCN)c(F)cc12 [peptide MAO probe, 1-Ahx-[Char]3—NH2] ({X1-Ahx}-[dCha][dR][dCha][dR][dCha][dR]-NH2)
[5]; [6]
  blue channel (405 nm) fluorescence of the probe after MAO-B inhibitor: very little fluorescence
  colocalization with MitoTracker Red after MAO-B inhibitor: only poor colocalization
